The results in this text go back to patent publication US8772266B2, “Fungicide pyrazole carboxamides derivates” (Bayer Cropscience AG, priority 2009, dated 2014).

SMILES strings stand for the structures.

A short description of the first data set: logP by HPLC on reversed-phase column (EEC Directive 79/831 Annex V.A8). To be noted: HPLC on reversed-phase column (C 18), 40° C., 0.1% aqueous formic acid and acetonitrile, linear gradient 10% to 90% acetonitrile.
`CCCCC1Cc2ccccc2C1N(C(=O)c1c(C(F)F)nn(C)c1F)C1CC1` (stereo not drawn) [Example 100]: the logP was found to be 4.85.
Same read-out and setting: for `CC(C)Cc1cccc(Cl)c1CN(C(=O)c1c(C(F)F)nn(C)c1Cl)C1CC1` [Example 150] the value was 4.74.
Molecule `Cn1nc(C(F)F)c(C(=O)N(Cc2cc(Cl)ccc2C2CCCC2)C2CC2)c1Cl` [Example 152] displayed a logP of 4.92.
The same measure, in the same setting: for `CC(C)c1ccc(F)cc1CN(C(=O)c1c(C(F)F)nn(C)c1Cl)C1CC1` [Example 146] the value was 3.92; for `Cn1nc(C(F)F)c(C(=O)N(Cc2c(Cl)cccc2[Si](C)(C)C)C2CC2)c1Cl` [Example 151], 4.82.
Same read-out and setting: for `CC(C)CC(C)c1ccccc1CN(C(=O)c1c(C(F)F)nn(C)c1F)C1CC1` (stereo not drawn) [Example 154] the value was 4.82; for `Cc1cccc2c1CCC2N(C(=O)c1c(C(F)F)nn(C)c1F)C1CC1` (racemic) [Example 102], 3.55.
On the same count and under the same terms, the result for `Cn1nc(C(F)F)c(C(=O)N(Cc2cccc(C(F)(F)F)c2Cl)C2CC2)c1F` [Example 104] reads 3.64.
`Cn1nc(C(F)F)c(C(=O)N(Cc2c(Cl)cc(Cl)cc2Cl)C2CC2)c1F` [Example 107] yielded a logP of 3.99.

The data set is the same for the next values; noted with them: HPLC, reversed-phase column (C 18), 40° C., 0.1% aqueous formic acid and acetonitrile, linear gradient 10% to 90% acetonitrile.
In turn, `CCC(c1cc(Cl)cc(Cl)c1)N(C(=O)c1c(C(F)F)nn(C)c1F)C1CC1` (stereo not drawn) [Example 71] had a logP of 4.41.
In the case of `Cc1cc(C)c2c(c1)C(N(C(=O)c1c(C(F)F)nn(C)c1F)C1CC1)CCC2` (stereo not drawn) [Example 74], the logP came out at 4.25.
Same read-out and setting: for `CC(c1ccccc1C(F)(F)F)N(C(=O)c1c(C(F)F)nn(C)c1Cl)C1CC1` (stereo not drawn) [Example 55] the value was 3.64; for `CC(c1ccc(C(F)(F)c2ccccc2)cc1)N(C(=O)c1c(C(F)F)nn(C)c1F)C1CC1` (stereo not drawn) [Example 77], 4.23; for `Cn1nc(C(F)F)c(C(=O)N(Cc2c(Cl)cccc2I)C2CC2)c1F` [Example 19], 3.58.
Molecule `CC(C)Cc1cc(Cl)ccc1CN(C(=O)c1c(C(F)F)nn(C)c1F)C1CC1` [Example 31] had a logP of 4.59.
Same read-out and setting: for `CC(c1ccc(Oc2ccccc2)cc1)N(C(=O)c1c(C(F)F)nn(C)c1Cl)C1CC1` (stereo not drawn) [Example 60] the value was 4.31; for `CC(c1ccc(Oc2ccccc2)cc1)N(C(=O)c1c(C(F)F)nn(C)c1F)C1CC1` (stereo not drawn) [Example 65], 4.14; for `Cn1nc(C(F)F)c(C(=O)N(C2CC2)C2CCCc3cccc(Br)c32)c1F` (stereo not drawn) [Example 97], 3.78.
`CCCCC(c1ccccc1)N(C(=O)c1c(C(F)F)nn(C)c1F)C1CC1` (stereo not drawn) [Example 94] displayed a logP of 4.26.
The same measure, in the same setting: for `CC(c1ncc(Cl)cc1Cl)N(C(=O)c1c(C(F)F)nn(C)c1Cl)C1CC1` (stereo not drawn) [Example 58] the value was 3.69; for `Cc1cc(Br)c(CN(C(=O)c2c(C(F)F)nn(C)c2F)C2CC2)cc1F` [Example 75], 3.73; for `Cn1nc(C(F)F)c(C(=O)N(Cc2ccc(Cl)cc2Cl)C2CC2)c1Cl` [Example 59], 3.89.
On the same count and under the same terms, for `CC(C)c1ccccc1CN(C(=O)c1c(C(F)F)nn(C)c1Cl)C1CC1` [Example 34] the value was 3.81.
Still for that read-out and setting: the result for `CCCCC(c1ccc(C(F)(F)F)cc1)N(C(=O)c1c(C(F)F)nn(C)c1F)C1CC1` (stereo not drawn) [Example 93] reads 4.8; that for `CCC(c1ccc(Cl)cc1Cl)N(C(=O)c1c(C(F)F)nn(C)c1F)C1CC1` (stereo not drawn) [Example 69], 4.2.
In the case of `Cn1nc(C(F)F)c(C(=O)N(Cc2ccccc2C(C)(C)C)C2CC2)c1F` [Example 76], the logP was determined as 4.06.
Same read-out and setting: the result for `Cc1cc(Cl)c(CN(C(=O)c2c(C(F)F)nn(C)c2F)C2CC2)cc1C` [Example 79] reads 3.85.
On the same count and under the same terms, for `Cn1nc(C(F)F)c(C(=O)N(Cc2ccccc2C(F)(F)F)C2CC2)c1Cl` [Example 56] the value was 3.58; for `Cn1nc(C(F)F)c(C(=O)N(Cc2cc(Br)c3c(c2Br)OCO3)C2CC2)c1F` [Example 87], 3.44.
Molecule `Cn1nc(C(F)F)c(C(=O)N(Cc2ccccc2[Si](C)(C)C)C2CC2)c1Cl` [Example 37] had a logP of 4.49.
